Patent US8455023B2, “Composition for inhibiting melanogenesis and use thereof” (Kaohsiung Medical University, priority 2010, dated 2013)
Where two headings read alike, the source gives them in different places.

Assays:
Format in all cases: cell-based
[1] = tested on: Neonatal foreskin primary human epidermal melanocytes (HEMn-MP); assay: Melanin quantitation analysis in HEMn-MP cells; conditions: for Percentage of cellular melanin concentration (%): control = 100%; for Cell melanin content (in words): FIG. 2C
Method: Lin's method was used to quantify melanin (Lin et al., Constituents from the Formosan apple reduce tyrosinase activity in human epidermal melanocytes 2007 Phytochemistry Volume 68, Issue 8, Pages 1189-1199). Cells were resuspend in 1N NaOH and dimethyl sulfoxide (DSMO), heated at 80° C. for 1 hour, centrifuged for 10 min at 10,000 rpm, and measured OD 405 nm value of supernatant. As shown in Table 3 and FIG. 2C, the control group value was set as 100%. All results obtained from 3 independent experiments.

tyrosinase = biological target: T1, tyrosinase (Homo sapiens, UniProt P14679); assay: Tyrosinase activity assay (dopachrome biosynthesis rate, lysate of treated HEMn-MP cells); conditions: for Tyrosinase activity percentage (%): 3 days, control = 100%; for Tyrosinase activity (in words): FIG. 2B
T1 construct: endogenous in cells; host or cells: HEMn-MP human epidermal melanocytes (lysate in 1% Triton X-100/PBS)
T1 sequence (P14679 19-529): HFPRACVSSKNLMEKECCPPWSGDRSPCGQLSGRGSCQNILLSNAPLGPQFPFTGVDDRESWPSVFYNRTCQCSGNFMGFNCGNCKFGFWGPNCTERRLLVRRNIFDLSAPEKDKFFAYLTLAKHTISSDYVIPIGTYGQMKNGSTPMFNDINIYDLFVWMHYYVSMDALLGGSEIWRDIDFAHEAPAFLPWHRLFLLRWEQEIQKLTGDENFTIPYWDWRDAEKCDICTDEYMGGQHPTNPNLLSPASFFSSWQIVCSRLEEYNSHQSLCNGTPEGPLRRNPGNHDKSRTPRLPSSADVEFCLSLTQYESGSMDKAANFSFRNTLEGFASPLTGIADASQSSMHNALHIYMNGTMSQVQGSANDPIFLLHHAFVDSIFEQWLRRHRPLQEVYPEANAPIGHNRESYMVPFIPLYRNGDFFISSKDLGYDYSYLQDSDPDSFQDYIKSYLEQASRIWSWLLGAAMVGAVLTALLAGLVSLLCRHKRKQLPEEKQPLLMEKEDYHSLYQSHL
Method: Cultured cells were rinsed with […] resuspend in 1% Triton X-100/PBS. Cell lysate was harvested. L-Dopa and L-tyrosine 10 μl (10 mM in 0.1M PBS, pH 6.8) were added and incubated at 37° C. for 3 hours. After reaction, the OD 490 nm value was measured.

[2] = tested on: Neonatal foreskin primary human epidermal melanocytes (HEMn-MP); assay: Toxicity assay (MTS) in human melanocytes
Method: Neonatal foreskin primary human epidermal melanocytes (HEMn-MP) was purchased from Cascade Biologics™, and cultured in 254 medium (Cascade Biologics™) with human melanocyte growth supplement (HMGS, cat. #S-002-5). Cells were maintained at 37° C. humid environment (5% CO2). Neonatal foreskin primary human epidermal melanocytes (HEMn-MP) were cultured in 24-Well plates at seeding density of 10^5 cells/well.
MTS assay (Mosmann T, Rapid colorimetric assay for cellular growth and survival: application to proliferation and cytotoxicity assays J Immunol Methods 1983 16; 65(1-2):55-63) was used for cell toxicity assay. […] The stimulation of MSH to melanin synthesis was used as a reference for comparison of compound (I) and (II). Control group value was set as 100% which obtained from 3 independent experiments.

[3] = tested on: Neonatal foreskin primary human epidermal melanocytes (HEMn-MP); assay: Microscopic appearance of HEMn-MP cells (FIG. 3); conditions: high concentrations; 200× bright field; FIGS. 3E and 3J
Text: Microscopic images were taken under 200× magnification bright field view. The arrow head indicates bipolar appearance of neonatal foreskin primary human epidermal melanocyte (HEMn-MP).
Under 200× bright field microscope, the control group and low concentration compound (I) and (II) treated cells (FIGS. 3A, 3H, 3I, 3M and 3N) were lined up tightly showing bipolar appearance.

[4] = reference, concentration 100 μM

SMILES | Percentage of cellular melanin concentration (%) ([1]; 0.01 μM) | Percentage of cellular melanin concentration (%) ([1]; 0.1 μM (MSH concentration)) | Percentage of cellular melanin concentration (%) ([1]; 1 μM) | Percentage of cellular melanin concentration (%) ([1]; 5 μM) | Percentage of cellular melanin concentration (%) ([1]; 10 μM) | Cell melanin content (in words) [1] | Tyrosinase activity percentage (%) (tyrosinase; 0.01 μM) | Tyrosinase activity percentage (%) (tyrosinase; 0.1 μM (MSH concentration)) | Tyrosinase activity percentage (%) (tyrosinase; 1 μM) | Tyrosinase activity percentage (%) (tyrosinase; 5 μM) | Tyrosinase activity percentage (%) (tyrosinase; 10 μM) | Tyrosinase activity (in words) (tyrosinase) | Cell activity (in words) [2] | Cell activity percentage (%) ([2]; human, 0.01 μM) | Cell activity percentage (%) ([2]; human, 0.1 μM) | Cell activity percentage (%) ([2]; human, 1 μM) | Cell activity percentage (%) ([2]; human, 5 μM) | Cell activity percentage (%) ([2]; human, 10 μM) | Cell appearance under microscope [3] | Percentage of cellular melanin concentration (%) [1, 4] [%] | also measured
CCCCCCCCCCCCC/C=C1\C(=O)O[C@@](C)(OC)[C@@H]1O [Subamolide A, subamolide A] | 84.11 | 76.85 | 66.1 | 25.12 | 20.2439 | cell melanin content decreased | 78.62 | 74.21 | 44.03 | 7.369 | 7.275 | reduced along with elevated concentrations | reduced along with higher concentrations | 93.41 | 85.66 | 73.91 | 54.69 | 44.91 | partial toxicity to cells |  | 
NC(=S)Nc1ccccc1 [N-phenylthiourea, reference compound] |  |  |  |  |  | reduced melanin content |  |  |  |  |  | less effective to tyrosinase activity |  |  |  |  |  |  |  | 77.56 | Tyrosinase activity percentage (%) (tyrosinase; [4]): 71.07%; Cell activity percentage (%) ([2]; 100 μM, MTS, control = 100%): 79.07%; Cell activity (in words) ([2]; FIG. 2A): less effects on cell activity
C=C1OC(=O)/C(=C\CCCCCCCCCCCCC)[C@H]1O [Linderanolide B, linderanolide B] | 89.63 | 78.63 | 67.56 | 28.93 | 24.39 | cell melanin content decreased | 84.15 | 72.96 | 45.91 | 18.04 | 14.59 | reduced along with elevated concentrations | reduced along with higher concentrations | 94.19 | 87.52 | 83 | 62.41 | 54.26 | partial toxicity to cells |  | 
O=c1cc(CO)occ1O [Kojic acid, reference compound] |  |  |  |  |  | reduced melanin content |  |  |  |  |  |  | less effects on cell activity |  |  |  |  |  |  | 66.34 | Cell activity percentage (%) ([2]; human, 100 μM): 72.87%
